Laboratory results: the supplement of paper PMC10331698
± gives the standard deviation of the averaged measurements.

Columns and labels:
Assay in all cases: LOEC (log10 uM (lowest observed effect concentration))
[1] = compound: NS(=O)(=O)C(F)(F)C(F)(F)C(F)(F)C(F)(F)C(F)(F)C(F)(F)C(F)(F)C(F)(F)F [Perfluorooctanesulfonamide]
Experimental: (§1)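 BioMAP Diversity Plus panel in human primary cell co-cultures, 4 concentrations in duplicate blinded samples. Responses are log10 fold change versus DMSO control, processed with tcpl v2.1.0. A hit is called when responses at any concentration exceed the cutoff (the larger of 3*bmad or log10(1.2)); the lowest observed effect concentration (modl_ga, log10 uM) is reported for hits.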

[2] = compound: O=C(O)C=C(C(F)(F)F)C(F)(F)F [3,3-Bis(trifluoromethyl)-2-propenoic acid]
Experimental: as §1

[3] = compound: O=C(O)C(F)(F)OC(F)(F)C(F)(F)OC(F)(F)C(F)(F)OC(F)(F)C(F)(F)C(F)(F)C(F)(F)F [Perfluoro-3,6,9-trioxatridecanoic acid]
Experimental: as §1

Perfluorononanoic acid = compound: O=C(O)C(F)(F)C(F)(F)C(F)(F)C(F)(F)C(F)(F)C(F)(F)C(F)(F)C(F)(F)F [Perfluorononanoic acid]
Experimental: as §1

[4] = compound: CCNS(=O)(=O)C(F)(F)C(F)(F)C(F)(F)C(F)(F)C(F)(F)C(F)(F)C(F)(F)C(F)(F)F [N-Ethylperfluorooctanesulfonamide]
Experimental: as §1

Perfluoroundecanoic acid = compound: O=C(O)C(F)(F)C(F)(F)C(F)(F)C(F)(F)C(F)(F)C(F)(F)C(F)(F)C(F)(F)C(F)(F)C(F)(F)F [Perfluoroundecanoic acid]
Experimental: as §1

[5] = compound: OCC(F)(F)OC(F)(F)C(F)(F)OC(F)(F)C(F)(F)OC(F)(F)CO [1H,1H,11H,11H-Perfluorotetraethylene glycol]
Experimental: as §1

Test System | LOEC (log10 uM) [1] | LOEC (log10 uM) [2] | LOEC (log10 uM) [3] | LOEC (log10 uM) (Perfluorononanoic acid) | LOEC (log10 uM) [4] | LOEC (log10 uM) (Perfluoroundecanoic acid) | LOEC (log10 uM) [5]
3C Eselectin down | 1.78 | 1.3 | 1.78 | – | – | – | –
3C HLADR down | 1.54 ± 0.34 | 1.78 | 1.78 | 1.78 | – | – | –
3C ICAM1 down | 1.78 | – | 1.78 | – | – | – | –
3C IL8 down | – | – | 1.3 | – | – | – | –
3C MCP1 down | 1.78 | – | 1.78 | 1.78 | – | – | –
3C MIG down | 1.78 | – | 1.78 | – | – | – | –
3C SRB down | 1.3 | – | 1.3 | 1.78 | 1.78 | – | –
3C Thrombomodulin up | 1.3 | – | – | – | – | – | –
3C TissueFactor down | 1.78 | – | 1.3 | 1.78 | – | – | –
3C VCAM1 down | 1.78 | 1.54 ± 0.34 | 1.78 | 1.78 | 1.78 | – | –
3C uPAR down | 1.78 | – | 1.54 ± 0.34 | 1.78 | – | – | –
4H Pselectin down | 1.78 | 1.78 | 1.78 | – | 1.54 ± 0.34 | – | –
4H SRB down | 1.3 | – | 1.78 | 1.78 | 1.78 | – | –
4H VCAM1 down | 1.78 | 0.573 ± 0.39 | 1.54 ± 0.34 | – | 1.78 | – | –
4H VEGFRII down | – | – | – | – | 1.78 | – | –
4H uPAR down | 1.78 | – | 1.78 | – | – | – | –
BE3C EGFR down | 1.78 | – | – | – | 1.54 ± 0.34 | 0.845 | –
BE3C ICAM1 down | 1.78 | – | 0.845 | 1.78 | – | 0.845 | –
BE3C IL1a down | 1.78 | – | 0.845 | 1.78 | 1.78 | 0.845 | –
BE3C ITAC down | 1.3 | – | 0.845 | 1.78 | 1.3 | 0.301 | –
BE3C Keratin818 down | 1.78 | – | 0.845 | 1.78 | 0.845 | 0.845 | –
BE3C MIG down | 1.78 | – | 0.845 | 1.78 | 1.78 | 0.845 | –
BE3C MMP9 down | 0.845 | – | 0.845 | 1.78 | 0.845 | -0.199 ± 0.71 | –
BE3C PAI1 down | 0.845 | – | 0.573 ± 0.39 | 1.54 ± 0.34 | 0.845 | -0.199 ± 0.71 | –
BE3C SRB down | 1.78 | – | 0.845 | 1.78 | 1.78 | 0.845 | –

Test System | LOEC (log10 uM) [1] | LOEC (log10 uM) [2] | LOEC (log10 uM) [3] | LOEC (log10 uM) (Perfluorononanoic acid) | LOEC (log10 uM) [4] | LOEC (log10 uM) (Perfluoroundecanoic acid) | LOEC (log10 uM) [5]
BE3C uPA down | 1.78 | – | 0.845 | 1.31 ± 0.66 | – | 0.845 | –
BE3C uPAR down | 1.78 | – | 0.845 | 1.78 | 1.3 | 0.845 | –
BF4T CD90 down | 1.78 | – | 1.3 | – | – | – | –
BF4T ICAM1 down | 1.54 ± 0.34 | – | 1.07 ± 0.32 | 1.78 | 1.78 | 0.845 | –
BF4T IL1a down | 1.78 | – | 1.3 | 1.78 | 1.78 | 0.845 | –
BF4T IL8 down | 1.78 | – | – | 1.78 | – | – | –
BF4T Keratin818 down | 1.54 ± 0.34 | – | 1.3 | 1.78 | 1.54 ± 0.34 | 0.845 | –
BF4T MMP1 down | – | – | 1.3 | 1.78 | 1.78 | 0.845 | –
BF4T MMP3 down | 1.78 | – | 1.07 ± 0.32 | 1.78 | – | 0.845 | –
BF4T MMP9 down | 1.3 | – | 1.07 ± 0.32 | 1.78 | 1.54 ± 0.34 | 0.845 | –
BF4T PAI1 down | 1.78 | – | 1.3 | 1.78 | – | 0.845 | –
BF4T SRB down | 1.78 | – | 1.3 | 1.78 | 1.78 | 0.845 | –
BF4T VCAM1 down | 1.3 | – | 0.845 | 1.07 ± 0.32 | 0.845 | 0.845 | –
BF4T uPA down | 1.78 | – | 1.3 | 1.78 | – | 0.845 | –
BT Bcell Proliferation down | – | 1.78 | – | – | – | – | –
BT Bcell Proliferation up | – | – | – | 1.78 | – | – | –
BT xIL17A down | 1.78 | 1.78 | 1.78 | – | – | – | –
CASM3C HLADR down | – | 0.573 ± 0.39 | – | – | – | – | –
CASM3C LDLR down | 1.78 | – | 1.78 | – | – | – | –
CASM3C Proliferation down | 1.78 | 1.78 | 1.78 | – | – | – | –
CASM3C SRB down | 1.78 | – | 1.78 | – | – | – | –
CASM3C uPAR down | 1.78 | – | – | – | – | – | –
IMphg IL1a down | – | – | 1.54 ± 0.34 | – | – | – | –
IMphg SRB down | 1.78 | – | 1.78 | – | – | – | –
IMphg SRB.Mphg down | 1.78 | – | 1.78 | – | – | – | –

Test System | LOEC (log10 uM) [1] | LOEC (log10 uM) [2] | LOEC (log10 uM) [3] | LOEC (log10 uM) (Perfluorononanoic acid) | LOEC (log10 uM) [4] | LOEC (log10 uM) (Perfluoroundecanoic acid) | LOEC (log10 uM) [5]
KF3CT ICAM1 down | 1.78 | – | 1.3 | – | – | 0.845 | –
KF3CT IL8 down | 1.78 | – | – | – | – | 0.845 | –
KF3CT IP10 down | 1.3 | – | 0.845 | 1.78 | 1.54 ± 0.34 | 0.845 | –
KF3CT MCP1 down | 1.78 | – | 0.845 | 0.801 ± 0.71 | – | 0.845 | –
KF3CT MIG down | 1.78 | – | 1.3 | – | – | 0.845 | –
KF3CT MMP9 down | 1.3 | – | 0.845 | 1.31 ± 0.66 | 1.3 | 0.301 | –
KF3CT PAI1 down | 1.54 ± 0.34 | – | 0.845 | 1.78 | 1.54 ± 0.34 | 0.301 | –
KF3CT SRB down | 1.78 | – | 1.3 | – | – | 0.845 | –
KF3CT TIMP2 down | 1.78 | – | 0.845 | – | 1.78 | 0.845 | –
KF3CT uPA down | 1.3 | – | 1.3 | – | 1.78 | 0.845 | –
LPS CD40 down | 1.78 | 1.78 | 1.78 | 1.78 | 1.78 | – | –
LPS CD69 down | 1.3 | – | 1.78 | 1.78 | – | – | –
LPS Eselectin down | 1.78 | – | 1.78 | – | – | – | –
LPS IL8 down | 1.78 | – | 1.07 ± 0.32 | – | 1.78 | – | –
LPS MCP1 down | 1.78 | – | 1.54 ± 0.34 | 1.78 | 1.78 | – | –
LPS MCSF down | 1.78 | 1.31 ± 0.66 | 1.78 | – | – | – | –
LPS SRB down | 1.78 | – | 1.78 | 1.78 | 1.78 | – | –
LPS TissueFactor down | 1.78 | – | 1.78 | – | – | – | –
LPS TissueFactor up | – | – | – | – | 1.78 | – | –
LPS VCAM1 down | 1.78 | 0.573 ± 0.39 | 1.78 | 1.78 | – | – | –
MyoF CollagenI down | 1.3 | – | 0.845 | 1.54 ± 0.34 | 1.78 | 0.301 | –
MyoF CollagenIII down | 1.3 | – | 0.845 | 1.78 | 1.78 | 0.301 | –
MyoF CollagenIV up | – | – | – | 1.3 | – | – | –
MyoF Decorin down | – | – | 1.3 | – | 1.78 | 0.845 | –
MyoF IL8 down | 1.78 | – | 1.78 | – | 1.78 | 0.845 | –

Test System | LOEC (log10 uM) [1] | LOEC (log10 uM) [2] | LOEC (log10 uM) [3] | LOEC (log10 uM) (Perfluorononanoic acid) | LOEC (log10 uM) [4] | LOEC (log10 uM) (Perfluoroundecanoic acid) | LOEC (log10 uM) [5]
MyoF PAI1 down | 1.78 | – | 1.07 ± 0.32 | – | 1.78 | 0.845 | –
MyoF SRB down | 1.3 | – | 1.07 ± 0.32 | – | 1.78 | 0.845 | –
MyoF TIMP1 down | 1.78 | – | 1.3 | – | 1.3 | 0.573 ± 0.39 | –
MyoF VCAM1 down | 1.3 | 1.3 | 0.845 | 1.78 | 1.3 | 0.845 | –
MyoF bFGF down | 1.78 | – | 1.07 ± 0.32 | – | 1.78 | 0.845 | –
SAg CD38 down | 1.54 ± 0.34 | – | 1.78 | 1.78 | 1.78 | – | –
SAg CD69 down | 1.54 ± 0.34 | 1.78 | 1.54 ± 0.34 | 1.78 | 1.3 | 0.845 | –
SAg MCP1 down | 1.78 | – | 1.78 | 1.78 | 1.78 | – | –
SAg MIG down | 1.78 | – | 1.78 | – | – | – | –
SAg PBMCCytotoxicity down | 1.78 | – | 1.78 | – | – | – | –
SAg Proliferation down | 1.78 | 1.78 | 1.78 | 1.78 | 1.78 | – | –
SAg SRB down | 1.78 | – | 1.78 | 1.78 | 1.78 | – | –
hDFCGF CollagenI down | – | – | 1.54 ± 0.34 | – | 1.78 | 0.845 | –
hDFCGF CollagenIII down | 1.3 | – | 0.845 | – | 0.845 | 0.845 | –
hDFCGF EGFR down | – | – | – | – | – | 0.301 | –
hDFCGF ICAM1 down | 1.3 | – | 1.07 ± 0.32 | 1.78 | 1.54 ± 0.34 | 0.845 | –
hDFCGF IL8 down | 1.3 | – | 1.3 | – | 1.78 | 0.845 | –
hDFCGF MMP1 up | – | – | – | – | – | – | 1.54 ± 0.34
hDFCGF PAI1 down | 1.3 | – | 0.845 | – | 1.54 ± 0.34 | 0.845 | –
hDFCGF SRB down | 1.78 | – | 0.845 | – | 1.54 ± 0.34 | 0.845 | –
hDFCGF TIMP1 down | – | – | 1.07 ± 0.32 | – | 1.78 | 0.845 | –
hDFCGF TIMP1 up | 1.78 | – | – | – | – | – | –
hDFCGF TIMP2 down | – | – | 0.845 | – | 1.54 ± 0.34 | 0.845 | –
